Here are results for two compounds from patent US11602534B2, “Pyrimidine derivative kinase inhibitors” (HEFEI INSTITUTES OF PHYSICAL SCIENCE, CHINESE ACADEMY OF …, priority 2017, dated 2023).

What is called GI50 is the concentration at which growth is held to half of that of the control.

One assay relates to Tel-cKit-BaF3. As to the kind of experiment: Proliferation of Tel-cKit-BaF3 cells, CCK8 cell viability assay. Type of assay: cell-based, mouse. Particulars: Mus musculus; 72 hours, CCK8; stably expressing cKIT kinase. The method in brief: (§1)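 Murine BaF3 lines carry retrovirally transduced human kinase domains fused to an N-terminal TEL fragment (cKIT, PDGFRα or PDGFRβ), and IL-3 is withdrawn so their growth depends on the fused kinase; parental BaF3 serves as the reference line. Living cells were quantified by CCK8 dehydrogenase activity, giving GI50 in μM.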
(Tetrazolium assays rely on reduction of a dye to a coloured formazan, in cell work by metabolically active cells.)

For another assay, the system named is protein kinase FLT3. As to the kind of experiment: Phosphorylation of FLT3 in AML cells. Conditions: MV-4-11, MOLM-13 and MOLM-14 cell lines; 4 hours; compounds 0.01-3 μM, PKC412 1 μM. Type of assay: cell-based, human. The method, then: (§2) In cells having FLT3 gene and/or FLT3/ITD mutant gene, specifically, human acute myeloid leukemia cells MV4-11 (expressing FLT3/ITD mutant gene) cell strain and human acute myeloid leukemia cells MOLM-13 and MOLM-14 (expressing FLT3/ITD mutant gene and wild-type FLT3 gene) cell strains, Compound 5, Compound 135 and a FLT3 kinase inhibitor, PKC412 (purchased from Hao Yuan Chemexpress Company, Shanghai), which was used as the control, were evaluated for their effects in cells on phosphorylation of FLT3 and FLT3/ITD protein kinase and phosphorylation of the closely-related STATS protein which is downstream of FLT3 signaling pathways, as well as their effects on phosphorylation of other relevant protein kinases such as ERK and AKT, by assaying a number of cellular biochemical and functional endpoints. In addition, the effects on C-Myc and phosphorylation of the transcription factor NF-κB subunit p65 was also examined (FIGS. 1a-1f). Compound 5 and Compound 135 at different concentrations (0 μM, 0.01 μM, 0.03 μM, 0.1 μM, 0.3 μM, 1 μM, 3 μM in DMSO) and the FLT3 kinase inhibitor PKC412 (1 μM in DMSO) were used to treat acute myeloid leukemia cells MV-4-11, MOLM13 and MOLM-14 that had FLT3 and/or FLT3/ITD gene for 4 hours, respectively, and then the samples were collected. The effects of the compounds on the phosphorylation of proteins such as STATS, C-Myc, ERK, NF-κB p65, AKT in cells were tested (FIGS. 1a-1f).

Assay [1] concerns human acute myeloid leukemia cell strain MOLM-14. As to the kind of experiment: Proliferation of MOLM-14 cells, Cell Titer-Glo. The class given is cell-based. Particulars: for GI50: Homo sapiens, MOLM-14, 72 hours, Cell Titer-Glo, FLT3/ITD and wild-type FLT3, read-out: GI50 MOLM14. As for the experimental part: In addition, in this example the inhibitory activity of preferred compounds (Compound 5 and Compound 135) was tested against the following cell strains: human acute myeloid leukemia cell strain MV4-11 (expressing FLT3/ITD mutant gene), human acute myeloid leukemia cell strain MOLM-13 (expressing FLT3/ITD mutant gene and wild-type FLT3 gene), human acute myeloid leukemia cell strain MOLM-14 (expressing FLT3/ITD mutant gene and wild-type FLT3 gene), human acute myeloid leukemia cell strain OCI-AML-3 (expressing FLT3 A680V mutant gene), human chronic lymphatic leukemia cell strain MEC-1, Chinese hamster lung (CHL) cells, Chinese hamster ovary (CHO) cells, wherein all the cells were purchased from ATCC. In the example the compounds of the present invention were added respectively into the above cells at different concentrations (0.000508 μM, 0.00152 μM, 0.00457 μM, 0.0137 μM, 0.0411 μM, 0.123 μM, 0.370 μM, 1.11 μM, 3.33 μM, 10 μM in DMSO) and the cells were incubated for 72 hours. The number of viable cells was determined by quantification of ATP in living cells using Cell Titer-Glo® (Promega, the USA) Luminescent Cell Viability Assay kit and thereby GI50 was calculated.

A further assay deals with C-Myc. In words: Degradation of C-Myc in AML cells. Type of assay: cell-based, human. Particulars: MV-4-11, MOLM13 and MOLM-14; 4 hours; compounds 0.01-3 μM, PKC412 1 μM. The method, then:
as §2

A further assay has as its system MV4-11 cells. In words: Nude mouse model harboring subcutaneous MV4-11 tumor. The class given is in vivo. Particulars: for tumor volume increase: oral gavage; for tumor growth in mice: MV4-11 subcutaneous tumor, daily oral gavage, four weeks. The method, then: In order to determine the inhibitory effect of Compound 5 and Compound 135 on tumors in vivo, a nude mouse model harboring subcutaneous tumor was introduced. 44 mice (5-week-old) (Balb/c-nu female mice, purchased from Shanghai Snake Experimental Animal Co., Ltd.) were inoculated subcutaneously with MV4-11 cells at 1×10^7 cells/mouse, and the changes in body weight and tumor volume were recorded daily (tumor volume=tumor length×tumor width×tumor width/2). 10 days later, the mice, of which tumor volumes reached 200 mm^3, were randomized into seven groups with 5-9 mice in each group, and were treated as follows: the first group was administered daily by oral gavage with vehicle, i.e., methylcellulose-based aqueous suspension (purchased from Sinopharm Group Chemical Reagent Co., Ltd.); the second, third and the fourth groups were administered daily by oral gavage with 25 mg/kg, 50 mg/kg, 100 mg/kg of Compound 135 in a methylcellulose-based aqueous suspension formulation; the fifth, sixth and seventh groups were administered daily by oral gavage with 25 mg/kg, 50 mg/kg, 100 mg/kg of Compound 5 in a methylcellulose-based aqueous suspension formulation. The first day of administration was recorded as day 0, followed by continuous administration for four weeks (FIGS. 3a-3b).

The test system of a further assay is TEL-PDGFRα-BaF3. As to the kind of experiment: Proliferation of TEL-PDGFRα-BaF3 cells, CCK8 cell viability assay. Conditions: Mus musculus, 72 hours, stably expressing PDGFRα kinase. Type of assay: cell-based. The method in brief:
as §1

Another assay relates to Tel-FLT3-BaF3. In words: Proliferation of Tel-FLT3-BaF3 cells, CCK8 cell viability assay. Type of assay: cell-based. Particulars: Mus musculus, 72 hours, stably expressing FLT3 kinase. The method in brief: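 Human kinase-region sequences were PCR-amplified, fused behind N-terminal TEL in MSCV-Puro and stably introduced into mouse BaF3 by retrovirus. IL-3 was then removed to give kinase-dependent lines. Compound effects on these and on parental BaF3 are scored as GI50 (μM) via CCK8 viable-cell quantification.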

With `CC(=O)Nc1cc(Oc2ccc(NC(=O)Cc3ccc(F)cc3F)cc2)ncn1` [Example 5, N-[4-(6-acetylamino-pyrimidin-4-yloxy)-phenyl]-2-(2,4-difluoro-phenyl)-acetamide], the GI50 with Tel-cKit-BaF3 was found to be 5600 nM; in assay [1] it was 333 nM; in the assay on TEL-PDGFRα-BaF3 it was 14 nM; in the assay with Tel-FLT3-BaF3, 746 nM. The “phosphorylation of the protein kinase FLT3” value in the assay on protein kinase FLT3 is “capable of inhibiting phosphorylation”. The “inhibition of MOLM14 (in words)” value in assay [1] (summary of Table 3) is “selectively and strongly inhibited”. The “degradation of C-Myc” value with C-Myc is recorded as “significant effects on the degradation”. The results for the tumor volume increase entry in the assay on MV4-11 cells (50 mg/kg/day) and with MV4-11 cells (100 mg/kg/day) were “slowed significantly” and “slowed vastly”, respectively. Besides, the “tumor growth in mice” value with MV4-11 cells is “significantly inhibited”.

`CC(=O)Nc1cc(Oc2ccc(NC(=O)Cc3ccccc3C(F)(F)F)cc2)ncn1` [Example 135, N-[4-(6-acetylamino-pyrimidin-4-yloxy)-phenyl]-2-(2-trifluoromethyl-phenyl)-acetamide]: the GI50 was more than 10000 nM in the assay with Tel-cKit-BaF3, 343 nM in assay [1], 7 nM in the assay on TEL-PDGFRα-BaF3 and 249 nM in the assay on Tel-FLT3-BaF3. Besides, the “phosphorylation of the protein kinase FLT3” value in the assay on protein kinase FLT3 was “capable of inhibiting phosphorylation”. Besides, the “degradation of C-Myc” value in the assay on C-Myc is on record as “significant effects on the degradation”. Also, the tumor volume increase entry in the assay on MV4-11 cells (50 mg/kg/day) was “slowed significantly”; with MV4-11 cells (100 mg/kg/day), “slowed vastly”. Further, the “tumor growth in mice” value in the assay on MV4-11 cells is “significantly inhibited”.
